System: mold growth on cheese chunks
Test: Mold growth on refrigerated cheese chunks exposed to ambient air after surface treatment
Experimental: In one particular embodiment, the material applied comprises a suspension of natamycin in an aqueous saline solution. […] In a preferred embodiment of the invention, the process applies an average surface concentration of about 1.0 to 1.1 μg/cm^2 to ensure that an adequate concentration is applied over substantially the entire exterior surface. Application of natamycian at these average surface concentrations with the apparatus of the invention ensures that substantially all of the cheese chunk surface area has a surface concentration of at least about 0.5 μg/cm^2.
The efficacy of an antimycotic agent may be measured in terms of the number of days during which mold growth is retarded in treated samples, relative to untreated control samples. Generally, if mold growth is retarded by 45 days or more, the antimycotic may be considered effective. The absolute length of time during which mold growth is delayed depends on the mold load in the ambient air, in addition to effects of antimycotic agents.

SMILES: C[C@@H]1C/C=C/C=C/C=C/C=C/[C@H](O[C@@H]2O[C@H](C)[C@@H](O)[C@H](N)[C@@H]2O)C[C@@H]2O[C@](O)(C[C@@H](O)C[C@H]3O[C@@H]3/C=C/C(=O)O1)C[C@H](O)[C@H]2C(=O)O [natamycin]
- number of days by which mold growth is retarded (relative to untreated control samples) (preferred embodiment (average surface concentration about 1.0 to 1.1 μg/cm^2), refrigerated at 35° F. to 45° F., exposed to ambient air): over 45 days
- time cheese chunks remained mold-free (preferred embodiment, in some cases, refrigerated at 35° F. to 45° F., exposed to ambient air): over 200 days
- surface concentration level found effective in preventing mold growth (refrigerated cheese chunks exposed to ambient air for extended periods, natamycin suspension in aqueous saline solution applied by spray): about 0.5 μg/cm^2

From patent US6589580B1, “Method and apparatus for application of surface treatment to food products” (Kraft Foods Holdings, Inc., priority 1999, dated 2003)
